# Data: paper PMC11952234, “Functional profiling of synthetic camel milk-derived peptides with implication in glucose transport and diabetes” (PLOS One, 2025)
# Several values for one entry are separate records, joined by “and”; a condition that tells them apart may be missing. Equal entries are not always repeated. Where two headings read alike, the source gives them in different places. Marks after values point to notes of the source that are not given here. Residues, ends and D or L forms follow the SMILES beside them.
# Key:
# [1] = tested on: IR phosphorylation (pIR-Tyr1334) in HepG2 cells; experiment: IR phosphorylation by western blot in HepG2 cells; format: cell-based, human; conditions: 1 μM insulin + 0.1 mg/ml peptide, 10 minutes, 37°C
# Experimental: (§1) Following treatment, cells were then lysed with RIPA lysis buffer and thereafter centrifuged at 12000 × g for 30 minutes. Thereafter, the extracted cell lysate proteins were quantified using the bicinchoninic acid (BCA) protein assay. To examine the phosphorylation status of IR and AKT, 30-40 μg of proteins were loaded on 10% SDS-PAGE gel followed by western blot using the following antibodies: the mouse monoclonal anti-phospho-IR (pIR-Tyr1334)(1:1000 dilution) and the mouse monoclonal anti-phospho-AKT (pAKT-S473)(1:2000 dilution) as previously described. The corresponding total proteins loaded were also analyzed in parallel using the specific antibodies against the native forms of the different proteins. Densitometry analysis of the different western blots was performed using Image Studio Version 5.2 software from LICOR (Lincoln, Nebraska, USA).
# HepG2 cells = experiment: Glucose uptake assay (Glucose Uptake-Glo) in HepG2 cells; format: cell-based, human; conditions: 1 hour, 37°C; for glucose uptake, specific luminescence signal, Average: Average of Experiments 1-5, HepG2, 0.1 mg/ml peptide or 1 μM insulin, minimal data set for Figure 5; for % of glucose uptake: HepG2 cells, 0.1 mg/ml peptide or 1 μM insulin, % of insulin's response taken as 100%, mean ± SD of five independent experiments in triplicate
# Experimental: Glucose uptake in HepG2 cells was carried out using Glucose Uptake-Glo Assay (Promega). For this, cells seeded in a 96-well white plate (50,000 cells/well) were first washed with PBS and starved in phenol red-, glucose-, and serum-free medium (Dulbecco’s modified Eagle’s medium containing 0.01 mM HEPES, 0.3 mg/ml glutamine, 100 IU/ml penicillin, and 100 µg/ml streptomycin). […] The treatment was removed, and the cells were washed once with PBS and then incubated with 50 μL/well of freshly prepared 2-deoxyglucose (500 μM) for 10 minutes at room temperature. The uptake process was stopped and neutralized, followed by the addition of 50 μl/well of 2-deoxyglucose-6-phosphate (2DG6P) detection reagent and incubation for 15-60 minutes at room temperature. The glucose-6-phosphate dehydrogenase (G6PDH) oxidizes 2DG6P to 6-phosphodeoxygluconate (6PDG) and reduces NADP + to NADPH. The reductase uses NADPH to convert the proluciferin to luciferin, which is then used by Ultra-Glo™ recombinant luciferase to produce luminescence. This luminescence, proportional to the amount of 2-deoxyglucose transported inside the cells upon treatment, was then measured using a 0.3–1 second integration on GloMax® Discover luminometer according to Glucose Uptake-Glo™ protocol.
# [2] = biological target: T1, insulin receptor (IR); interaction of IR-Rluc with IRS1-YFP in HEK293 cells (Homo sapiens, UniProt P06213); experiment: BRET assay of IR activation (IR-Rluc/IRS1-YFP), single treatment, dose-response; format: cell-based; conditions: HEK293, 1 hour, 37°C, minimal data set for Figure 1, average
# T1 construct: expressed in transfected cells; host or cells: HEK293 cells, transient co-transfection; plasmids provided by Dr. Tarik Issad (Cochin Institute, Paris)
# Experimental: (§2) HepG2 and HEK293 cells were maintained at 37°C, 5% CO2 in complete RPMI and Dulbecco’s modified Eagle’s medium (DMEM), respectively, containing 0.3 mg/ml glutamine, 100 IU/ml penicillin, and 100 µg/ml streptomycin) supplemented with 10% fetal calf serum (Gibco, Carlsbad, CA, USA). The transient transfection in HEK293 cells was carried out in 75 cm flask containing 10^7 cells using Lipofectamine 2000 and 5 µg of IR-Rluc and 5 µg of IRS1-YFP (for BRET and phosphorylation experiments) as previously described. All assays were performed 48 hours post-transfection.
# (§3) BRET technology was used for IR activation and its interaction with IRS1 as previously described. […] Following treatments, 10 μl of Coelenterazine h was added to a final concentration of 5 µ M and BRET measurements were carried out using the Tristar 2 multi-label plate reader (Berthold, Germany), allowing luminescence recording and signal integration at 480 nm and 540 nm.
# (§4) Statistical analyses were performed statistical significance between the different treatments and conditions as indicated in the figures and tables and their captions. […] The significance is indicated in the figures by stars (****p-value < 0.0001, ***p-value < 0.001, ** p-value < 0.01, * p-value < 0.05), and the absence of stars means non-significant (p-value > 0.05). However, the two-way ANOVA was used for multiple comparisons to determine the statistical significance between the different peptides when compared to each other in the different assays as described in the tables.
# [3] = tested on: insulin receptor (IR); insulin-induced IR-Rluc/IRS1-YFP BRET in HEK293 cells; experiment: BRET assay of IR activation, peptides combined with insulin; format: cell-based, human; conditions: for insulin-induced BRET, % of insulin's response in the vehicle, Average: Average of Experiments 1-7; for insulin-induced BRET, % of insulin's response in the vehicle, Average / insulin-induced BRET, % of insulin's response in the vehicle / % of maximal BRET (insulin-induced): 1 μM insulin + 0.1 mg/ml peptide; for insulin-induced BRET, % of insulin's response in the vehicle, Average / insulin-induced BRET, % of insulin's response in the vehicle: HEK293, minimal data set for Figure 2; for % of maximal BRET (insulin-induced): 1 hour, 37°C, % of insulin's response in the vehicle taken as 100%, mean ± SD of five to seven independent experiments in triplicate; for profile on insulin-dependent BRET response in combined treatment (in words): compared to insulin alone (Vehicle)
# Experimental: as §2, §3
# as §4, with “For BRET, the data were normalized by taking as 100% of the maximal insulin-induced BRET signal in the vehicle and analyzed using GraphPad Prism software (San Diego, CA, USA). Statistical” for “Statistical”, “tables. In this case, the different letters indicate statistically significant effects (p-value < 0.05), while the same letters indicate no significant difference between the different treatments compared to each other.” for “tables.”
# [4] = tested on: AKT phosphorylation (pAKT-S473) in HepG2 cells; experiment: AKT phosphorylation by western blot in HepG2 cells; format: cell-based, human; conditions: 1 μM insulin + 0.1 mg/ml peptide, 10 minutes, 37°C
# Experimental: as §1
# [5] = HEK293, read-out: BRET, % of the maximal response of insulin, Average, peptide 0.001 mg/ml
# [6] = HEK293, read-out: BRET, % of the maximal response of insulin, Average, peptide 0.005 mg/ml
# [7] = HEK293, read-out: BRET, % of the maximal response of insulin, Average, peptide 0.01 mg/ml
# [8] = HEK293, read-out: BRET, % of the maximal response of insulin, Average, peptide 0.05 mg/ml
# [9] = HEK293, read-out: BRET, % of the maximal response of insulin, Average, peptide 0.1 mg/ml
# [10] = HEK293, read-out: BRET, % of the maximal response of insulin, Average, peptide 0.5 mg/ml
# [11] = HEK293, read-out: BRET, % of the maximal response of insulin, Average, peptide 1 mg/ml
# [12] = HEK293 cells, 0.1 mg/ml peptide + 1 μM insulin
# T1 sequence (P06213 28-758 limits assumed): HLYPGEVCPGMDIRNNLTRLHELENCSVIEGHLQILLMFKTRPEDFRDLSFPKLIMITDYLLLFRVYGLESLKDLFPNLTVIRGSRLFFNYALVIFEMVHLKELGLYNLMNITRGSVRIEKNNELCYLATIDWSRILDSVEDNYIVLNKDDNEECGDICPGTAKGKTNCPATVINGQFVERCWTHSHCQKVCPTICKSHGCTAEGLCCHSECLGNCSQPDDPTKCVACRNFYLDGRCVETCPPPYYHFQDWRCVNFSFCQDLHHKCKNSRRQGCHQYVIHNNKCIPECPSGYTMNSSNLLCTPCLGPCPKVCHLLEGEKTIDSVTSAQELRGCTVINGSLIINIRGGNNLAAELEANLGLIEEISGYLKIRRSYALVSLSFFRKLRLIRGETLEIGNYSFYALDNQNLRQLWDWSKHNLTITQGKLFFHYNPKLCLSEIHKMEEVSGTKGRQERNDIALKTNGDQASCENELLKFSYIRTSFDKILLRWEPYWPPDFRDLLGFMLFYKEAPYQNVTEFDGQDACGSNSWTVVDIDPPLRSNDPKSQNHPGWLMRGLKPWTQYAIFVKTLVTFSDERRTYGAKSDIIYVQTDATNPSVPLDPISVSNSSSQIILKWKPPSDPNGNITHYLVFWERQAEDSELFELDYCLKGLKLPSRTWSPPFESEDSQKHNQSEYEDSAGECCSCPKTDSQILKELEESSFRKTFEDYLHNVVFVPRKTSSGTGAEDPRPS
# T1 sequence (P06213 763-1382 limits assumed): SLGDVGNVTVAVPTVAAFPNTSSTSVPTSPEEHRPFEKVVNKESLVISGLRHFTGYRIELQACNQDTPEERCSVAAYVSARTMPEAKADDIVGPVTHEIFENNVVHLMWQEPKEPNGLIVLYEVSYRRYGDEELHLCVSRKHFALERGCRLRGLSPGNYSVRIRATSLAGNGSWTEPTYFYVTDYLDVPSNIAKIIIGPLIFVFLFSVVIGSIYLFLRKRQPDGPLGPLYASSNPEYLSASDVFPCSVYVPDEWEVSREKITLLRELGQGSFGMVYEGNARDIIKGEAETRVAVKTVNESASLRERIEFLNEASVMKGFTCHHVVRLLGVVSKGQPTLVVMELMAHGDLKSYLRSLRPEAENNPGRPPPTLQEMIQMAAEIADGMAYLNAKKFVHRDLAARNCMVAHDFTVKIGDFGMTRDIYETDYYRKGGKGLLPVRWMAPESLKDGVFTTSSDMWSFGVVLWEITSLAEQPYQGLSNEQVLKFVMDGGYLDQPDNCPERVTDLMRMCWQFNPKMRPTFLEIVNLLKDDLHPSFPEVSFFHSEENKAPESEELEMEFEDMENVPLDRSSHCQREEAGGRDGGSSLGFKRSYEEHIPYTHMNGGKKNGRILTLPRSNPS
Compound,"glucose uptake, specific luminescence signal, Average (HepG2 cells)",% of glucose uptake (HepG2 cells),"Emax [2, 5] [%]","Emax [2, 6] [%]","Emax [2, 7] [%]","Emax [2, 8] [%]","Emax [2, 9] [%]","Emax [2, 10] [%]","Emax [2, 11] [%]","insulin-induced BRET, % of insulin's response in the vehicle, Average [3]","insulin-induced BRET, % of insulin's response in the vehicle ([3]; Experiment 1)","insulin-induced BRET, % of insulin's response in the vehicle ([3]; Experiment 2)","insulin-induced BRET, % of insulin's response in the vehicle ([3]; Experiment 3)","insulin-induced BRET, % of insulin's response in the vehicle ([3]; Experiment 4)","insulin-induced BRET, % of insulin's response in the vehicle ([3]; Experiment 6)","insulin-induced BRET, % of insulin's response in the vehicle ([3]; Experiment 7)",% of maximal BRET (insulin-induced) ([3]; HEK293 cells),"profile on insulin-dependent BRET response in combined treatment (in words) [3, 12]","insulin-induced AKT phosphorylation, combined treatment (in words) [4]",also measured
CSCC[C@H](NC(=O)[C@H](Cc1c[nH]cn1)NC(=O)[C@H](CS)NC(=O)[C@@H]1CCCN1C(=O)[C@H](CC(C)C)NC(=O)[C@@H]1CCCN1C(=O)[C@@H]1CCCN1C(=O)[C@H](CC(C)C)NC(=O)[C@H](CS)NC(=O)[C@H](CS)NC(=O)[C@H](C)NC(=O)[C@@H](NC(=O)[C@H](C)NC(=O)[C@@H]1CCCN1)C(C)C)C(=O)O [Peptide P2] (H-PAVACCLPPLPCHM-OH; N-terminus and C-terminus assumed),1417300,56 ± 9^b %,6.9,19.9,32.1,47.3,59.2,68.7,58.9,52.0,76.0,33.7,14.3,58.1,70.5,56.8,52 ± 8% and 52 ± 8^b %,antagonistic,,"insulin-induced IR phosphorylation, combined treatment (in words) [1]: no inhibitory action; insulin-induced BRET, % of insulin's response in the vehicle ([3]; Experiment 5): 54.3; decrease of the insulin-dependent BRET response [3, 12]: ~ 50%"
"CC(C)C[C@H](N)C(=O)N1CCC[C@H]1C(=O)N[C@H](C(=O)N1CCC[C@H]1C(=O)O)C(C)C [Peptide P6, LPVP] (H-LPVP-OH; N-terminus and C-terminus assumed)",3425500,135 – 150% and 136 ± 16^d %,18.3,25.4,35,44.5,45.6,47.9,40.4,140.3,115.3,195.4,142.3,129.2,119.3,,135 ± 13^d %,potentiating,slightly potentiated,
"CC(C)[C@H](N)C(=O)N1CCC[C@H]1C(=O)N[C@@H](Cc1ccccc1)C(=O)O [Peptide P7, VPF] (H-Val-Pro-Phe-OH; N-terminus and C-terminus assumed)",2605600,,7.4,26.1,31.2,44.3,40.4,50.8,41.1,146.7,,149.4,179.1,160.6,120.3,124.3,147 ± 11^d %,potentiating,slightly potentiated,
